Measurements published in patent US5101059A, “Amino acid protecting groups” (Research Corporation Technologies, Inc., priority 1989, dated 1992).
One block for each compound: values may come before it.

Experiments:
Type in all cases: physicochemical
[1] = Piperidine deblocking of bis(9-fluorenyl)methyl carbanilate; conditions: piperidine 48.5 eq., anhydrous ether, room temperature
Protocol: B. Piperidine Deblocking of Bis(9-fluorenyl)methyl Carbanilate: To a suspension of 20 mg (0.042 mmol) of αF-Fmoc-analine in 0.2 mL of anhydrous ether was added 0.2 mL (2.02 mmol, 48.5 eq.) of piperidine. The mixture was stirred at room temperature and monitored by TLC with an eluant consisting of Skelly B--CH2 Cl2 (1:1). […] No attempt was made to isolate the individual component of the final reaction mixture.

[2] = Stability of difluorenyl derivatives in trifluoroacetic acid; conditions: TFA 500 eq.
Protocol: C. Stability of FM-Fmoc-analine in Trifluoroacetic Acid: To a solution of 51.3 mg of FM-Fmoc-analine in 6 mL of CHCl3 was added 4 mL (500 eq.) of trifluoroacetic acid. The mixture was stirred at room temperature and monitored by TLC with an eluant consisting of Skelly B--ether (2:1). No change was noted after two days. The mixture was diluted with 10 mL of chloroform, and washed with H2 O (2×15 mL) and sat'd NaHCO3 (2×15 mL). […] 241°-243° C., the ^1 H NMR and IR spectra of which matched that of an authentic sample.
D. Stability of Bis(9-fluorenyl)methyl Carbanilate Towards Trifluoroacetic Acid: To a solution of 100 mg of α-F-Fmoc-analine in 12 mL of chloroform was added 8 mL (500 eq.) of trifluoroacetic acid. The mixture was stirred at room temperature and monitored by TLC with an eluant consisting of Skelly B--ether (2:1). No change was noted after 24 hours. The mixture was washed with water (2×10 mL), sat'd NaHCO3 (3×10 mL), and water (10 mL). […] 223°-226° C. (dec.), the ^1 H NMR and IR spectra of which matched that of an authentic sample.

[3] = Protolysis of BTS-Fmoc-PCA in trifluoroacetic acid; conditions: TFA 10.7 eq., CH2Cl2, room temperature, 12 hours
Protocol: 4. Protolysis of 2,7-Bis(trimethylsilyl)-9-fluoroenylmethyl p-Chlorocarbanilate in Trifluoroacetic Acid: To a solution of 0.3 g of BTS-Fmoc-PCA in 8 mL of CH2 Cl2 was added dropwise a solution of 0.5 mL (10.7 eq.) of trifluoroacetic acid in 3.0 mL of methylene chloride over a period of 10 minutes. The mixture was stirred at room temperature for 12 hours, washed with water (2×10 mL), and neutralized with sat'd NaHCO3 (2×10 mL). […] Recrystallization from EtOAc--Skelly B (2:1) gave 0.16 g (75.3%) of the pure urethane as colorless needles, m.p. 184°-185° C., identified by mixture melting point, and IR and NMR spectral comparisons with an authentic sample.

[4] = Stability of substituted Fmoc-PCA in acetic acid; conditions: glacial acetic acid 10 eq., CH2Cl2, room temperature, 48 hours
Protocol: 2. […] The mixture was stirred at room temperature for 48 hours. […] The mixture was washed with half sat'd NaHCO3 (2×10 mL) and water (10 mL). […] 161°-163° C., the IR and ^1 H NMR spectra of which matched that of an authentic sample.
3. Stability of 9-Trimethylsilyl-9-[…] p-Chlorocarbanilate in Acetic Acid: To a solution of 0.37 g of TMS-Fmoc-PCA in 10 mL of CH2 Cl2 was added 0.5 mL (10 eq.) of glacial acetic acid. The mixture was stirred at room temperature. […] The mixture was washed with half sat'd NaHCO3 (2×10 mL) and H2 O (10 mL). […] 124°-126° C., the ^1 H NMR and IR spectra of which matched that of an authentic sample.

[5] = Base deblocking of substituted urethanes (U-PCA) by various amines; conditions: dichloromethane, room temperature
Excerpt: 1. General Procedure for Studying the Base Deblocking of the Urethanes Fmoc-PCA, BTS-Fmoc-PCA, DT-Fmoc-PCA, and TMS-Fmoc-PCA: A mixture of urethane (0.05 mmol) in a solution prepared from an equal volume of base (2.5 mmol, 50 eq.) and dichloromethane was stirred at room temperature. The course of the reaction was monitored by TLC with an eluant consisting of Skelly B--ether (3:1).

[6] = HPLC monitoring of the deblocking of Nε-(9-xanthenylmethoxycarbonyl)-L-lysine by TBD; conditions: TBD 20 eq., pyridine and DMF, room temperature
Protocol: B. HPLC Monitoring of the Deblocking of N^ε -(9-Xanthenylmethoxycarbonyl)-L-lysine by TBD: A mixture of […] of H-Lys(Xmoc)-OH and 150 mg (20 eq.) of 1,5,9-triazabicyclo[4,4,0]dec-5-ene (TBD) in 0.3 mL of pyridine and 0.3 mL of DMF was stirred at room temperature. A 20 μL portion of the mixture was neutralized with a solution of 0.3 mL of 5% HCl and 0.3 mL of methanol, filtered, and injected for HPLC analysis which was carried out on a Waters Radial Pak 10-μm C18 reverse phase column (0.8×10 cm) under the following conditions:
Mobile phase: 65% methanol and 35% TFA (0.1% in water)

[7] = Stability of FM-Fmoc-aniline towards catalytic hydrogenolysis; conditions: 5% Pd/C, 45 psi hydrogen, 24 hours
Protocol: E. Stability of FM-Fmoc-aniline Towards Catalytic Hydrogenolysis: To a mixture of 100 mg of FM-Fmoc-aniline and 63.9 mg of Fmoc-aniline in 30 mL of freshly distilled THF and 15 mL of 100% EtOH was added 30 mg of 5% palladium on charcoal. The mixture was shaken under hydrogen at a pressure of 45 psi in a Parr apparatus for 24 hours. […] Recrystallization of the latter from ethyl acetate gave 89.1 mg (89.1%) of the pure FM-Fmoc-anilineas white crystals, m.p. 243°-244° C. the ^1 H NMR and IR spectra of which matched that of an authentic sample.

[8] = chloroform, room temperature, 24 hours
[9] = CHCl3, room temperature, two days

time for total decomposition of the urethane [1]: ≤ 10 min | recovered urethane [2, 8]: 98.3% | stability in trifluoroacetic acid (TLC) [2, 8]: No change
Compound: O=C(Nc1ccccc1)OC(C1c2ccccc2-c2ccccc21)C1c2ccccc2-c2ccccc21 [α-F-Fmoc-aniline, Bis(9-fluorenyl)methyl Carbanilate]

Compound: C[Si](C)(C)c1ccc2c(c1)C(COC(=O)Nc1ccc(Cl)cc1)c1cc([Si](C)(C)C)ccc1-2 [BTS-Fmoc-PCA, 2,7-Bis(trimethylsilyl)-9-fluorenylmethyl p-Chlorocarbanilate]
product of protolysis in trifluoroacetic acid [3]: 9-fluorenylmethyl p-chlorocarbanilate | recovered urethane [4]: 95.35% | stability in acetic acid (TLC) [4]: no change | Time for Complete Deblocking ([5]; ethanolamine 50 eq.): 90 min | Time for Complete Scavenging of Dibenzofulvene Analogs ([5]; morpholine 50 eq.): 3.5 hr | Time for Complete Deblocking ([5]; morpholine 50 eq., significant aminodibenzofulvene type adduct formed): 190 min | Time for Complete Scavenging of Dibenzofulvene Analogs ([5]; piperidine 50 eq.): 40 min | Time for Complete Deblocking ([5]; piperidine 50 eq., significant aminodibenzofulvene type adduct formed): < 3 min | Time for Complete Deblocking ([5]; t-butylamine 50 eq.): 270 min

time after which no starting material was left (HPLC) [6]: ≤ 4.5 h
Compound: N[C@@H](CCCCNC(=O)OCC1c2ccccc2Oc2ccccc21)C(=O)O [H-Lys(Xmoc)-OH, N^ε -(9-Xanthenylmethoxycarbonyl)-L-lysine]

recovered urethane [2, 9]: 97.1% | stability in trifluoroacetic acid (TLC) [2, 9]: No change | recovered urethane [7]: 99.4%
Compound: O=C(Nc1ccccc1)OCC1(CC2c3ccccc3-c3ccccc32)c2ccccc2-c2ccccc21 [FM-Fmoc-aniline, 9-(9'-Fluorenylmethyl)-9-fluorenylmethyl Carbanilate]
